Columns and labels:
Assay in all cases: relative viability (nuclei count vs DMSO), 5 days (fraction); higher = more cells survive
[1] = compound: CS(=O)(=O)c1ccc(C(=O)Nc2ccc(Cl)c(-c3ccccn3)c2)c(Cl)c1 [Vismodegib] + O=C(CCCCCCC(=O)Nc1ccccc1)NO [Vorinostat] (partner 1 µM)
Method in brief: (§1)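 Five library-drug doses in √10 steps were combined with a fixed anchor-drug dose, or a single drug was given alone, by pin tool to lung cancer cell lines in 1536-well plates the day after seeding. Nuclei were stained and counted after 5 days. Relative viability is the nuclei count in treated wells over that in vehicle wells, taken as the median of duplicate plates.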

[2] = compound: CS(=O)(=O)c1ccc(-c2cnc(N)c(C(=O)Nc3ccccc3)n2)cc1 [VE-821] + CC1(C)CCC(c2ccc(Cl)cc2)=C(CN2CCN(c3ccc(C(=O)NS(=O)(=O)c4ccc(N[C@H](CCN5CCOCC5)CSc5ccccc5)c(S(=O)(=O)C(F)(F)F)c4)cc3)CC2)C1 [Navitoclax] (partner 0.5 µM)
Method in brief: as §1

[3] = compound: N#CC[C@H](C1CCCC1)n1cc(-c2ncnc3[nH]ccc23)cn1 [Ruxolitinib] + Cc1nc(Nc2ncc(C(=O)Nc3c(C)cccc3Cl)s2)cc(N2CCN(CCO)CC2)n1 [Dasatinib] (partner 0.075 µM)
Method in brief: as §1

[4] = compound: CS(=O)(=O)c1ccc(-c2cnc(N)c(C(=O)Nc3ccccc3)n2)cc1 [VE-821] + CS(=O)(=O)CCNCc1ccc(-c2ccc3ncnc(Nc4ccc(OCc5cccc(F)c5)c(Cl)c4)c3c2)o1 [Lapatinib] (partner 2 µM)
Method in brief: as §1

Cell Line | relative viability ([1]; first compound 0.08 µM) | relative viability ([1]; first compound 0.253 µM) | relative viability ([1]; first compound 0.8 µM) | relative viability ([1]; first compound 2.53 µM) | relative viability ([1]; first compound 8 µM) | relative viability ([2]; first compound 0.08 µM) | relative viability ([2]; first compound 0.253 µM) | relative viability ([2]; first compound 0.8 µM) | relative viability ([2]; first compound 2.53 µM) | relative viability ([2]; first compound 8 µM) | relative viability ([3]; first compound 0.08 µM) | relative viability ([3]; first compound 0.253 µM) | relative viability ([3]; first compound 0.8 µM) | relative viability ([3]; first compound 2.53 µM) | relative viability ([3]; first compound 8 µM) | relative viability ([4]; first compound 0.08 µM) | relative viability ([4]; first compound 0.253 µM) | relative viability ([4]; first compound 0.8 µM) | relative viability ([4]; first compound 2.53 µM) | relative viability ([4]; first compound 8 µM)
LU99A | 0.409 | 0.469 | 0.498 | 0.469 | 0.509 | 0.892 | 0.858 | 0.781 | 0.759 | 0.336 | 0.628 | 0.607 | 0.514 | 0.429 | 0.38 | 1.06 | 1.11 | 1.04 | 0.85 | 0.448
LXF-289 | 0.787 | 0.724 | 0.846 | 0.731 | 0.629 | 1.01 | 0.967 | 0.989 | 1.1 | 1.01 | 0.192 | 0.191 | 0.216 | 0.135 | 0.0782 | 1.02 | 0.993 | 0.911 | 1.07 | 0.966
NCI-H23 | 0.622 | 0.568 | 0.496 | 0.434 | 0.571 | 0.856 | 0.797 | 0.553 | 0.747 | 0.491 | 0.536 | 0.679 | 0.8 | 0.597 | 0.517 | 1.19 | 1.07 | 1.27 | 0.989 | 0.394
NCI-H322M | 0.925 | 0.842 | 0.848 | 0.851 | 0.855 | 1.24 | – | 1.39 | 1.38 | 1.08 | 0.248 | 0.258 | 0.241 | 0.238 | 0.217 | 0.555 | – | 0.654 | 0.627 | 0.508
NCI-H460 | 0.71 | 0.707 | 0.711 | 0.691 | 0.75 | 1.23 | 1.01 | 1.02 | 0.646 | 0.159 | 0.527 | 0.377 | 0.56 | 0.388 | 0.352 | 1.33 | 0.996 | 0.82 | 0.729 | 0.398
NCI-H520 | 0.71 | 0.697 | 0.747 | 0.553 | 0.701 | 1.16 | 1.15 | – | 1.1 | 0.671 | 0.239 | – | 0.183 | 0.159 | 0.163 | 0.874 | 0.845 | – | 0.789 | 0.519
NCI-H596 | 0.682 | 0.65 | 0.609 | 0.486 | 0.642 | 0.72 | 1.05 | 0.987 | 0.894 | 0.644 | 0.581 | 0.654 | 0.585 | 0.575 | 0.496 | 1.06 | 0.87 | 1.12 | 1.26 | 1
NCI-H647 | 0.586 | 0.424 | 0.63 | 0.511 | 0.654 | 1.09 | 1.15 | 0.856 | 1 | 0.573 | 0.207 | 0.155 | 0.182 | 0.0851 | 0.106 | 1.15 | 0.884 | 1 | 1.16 | 0.535
NCI-H727 | 1.21 | 1.32 | 1.1 | 1.18 | 1.2 | 0.478 | 0.57 | 0.411 | 0.546 | 0.216 | 0.396 | 0.303 | 0.456 | 0.469 | 0.451 | 1.02 | 0.755 | 0.804 | 0.714 | 0.436
NCI-H838 | 0.696 | 0.715 | 0.727 | 0.743 | 0.733 | 1.3 | 1.11 | 1.02 | 1.18 | 1.07 | 0.253 | 0.251 | 0.286 | 0.211 | 0.211 | 1.08 | 0.99 | 0.921 | 1.11 | 0.657
NCI-H1355 | 0.716 | 0.632 | 0.569 | 0.611 | 0.648 | 1.09 | 0.91 | 0.729 | 0.879 | 0.542 | 0.711 | 0.532 | 0.579 | 0.522 | 0.36 | 1.06 | 1.05 | 0.834 | 1.07 | 0.627
NCI-H1395 | 0.681 | 0.663 | 0.614 | 0.522 | 0.8 | – | 1.09 | 1.3 | 1.32 | 0.72 | 0.387 | 0.374 | 0.42 | 0.434 | 0.361 | 0.902 | 1.15 | 0.903 | 0.987 | 0.768
NCI-H1437 | 0.824 | 0.756 | 0.806 | 0.732 | 0.804 | 1.17 | 1.11 | 1.01 | 1.12 | 1.04 | 0.294 | 0.363 | 0.354 | 0.458 | 0.236 | 0.816 | 0.71 | 0.763 | 0.871 | 0.614
NCI-H1650 | 0.568 | 0.523 | 0.48 | 0.543 | 0.569 | 1.45 | 1.25 | 0.725 | 1.29 | 0.751 | – | 0.265 | 0.343 | 0.252 | 0.29 | 0.845 | 0.749 | 0.705 | 0.757 | 0.45
NCI-H1651 | 0.581 | 0.582 | 0.547 | 0.49 | 0.503 | 0.97 | 0.941 | 0.949 | 1.02 | 0.864 | 0.323 | 0.37 | 0.389 | 0.337 | 0.29 | 0.93 | 0.815 | 0.785 | 1.04 | 0.74
NCI-H1666 | 1.04 | 0.957 | 1 | 1.01 | 1.06 | 0.98 | 1.01 | 0.939 | 0.875 | 0.703 | 0.869 | 0.757 | 0.838 | 0.76 | 0.528 | 0.839 | 0.57 | 0.713 | 0.623 | 0.462
NCI-H1734 | 0.791 | 0.732 | 0.821 | 0.723 | 0.737 | 1.03 | 0.875 | 0.79 | 0.862 | 0.63 | 0.522 | 0.433 | 0.503 | 0.38 | 0.341 | 1.43 | 1.04 | 1.03 | 1.16 | 0.73
NCI-H1755 | 0.836 | 0.659 | 0.85 | 0.809 | 0.762 | 1.03 | 0.992 | 0.732 | 0.928 | 0.83 | 0.473 | 0.394 | 0.472 | 0.341 | 0.213 | 1.09 | 0.997 | 0.961 | 0.981 | 0.861
NCI-H1793 | – | 0.717 | 0.733 | 0.734 | 0.748 | 0.693 | 0.507 | 0.251 | 0.449 | 0.314 | 0.286 | 0.394 | 0.389 | 0.303 | 0.243 | 0.868 | 0.735 | 0.642 | 1.31 | 0.815
NCI-H1915 | 0.491 | 0.488 | 0.497 | 0.434 | 0.534 | 0.8 | 0.81 | 0.826 | 0.79 | 0.678 | 0.33 | 0.305 | 0.319 | 0.217 | 0.204 | 1 | 0.999 | 0.994 | 1.04 | 0.88
NCI-H1944 | 0.592 | 0.522 | 0.735 | – | 0.568 | 1.16 | 0.997 | 0.92 | 1.1 | 0.643 | 0.204 | 0.17 | 0.209 | 0.168 | 0.167 | 1.09 | 0.811 | 0.748 | 0.935 | 0.386
NCI-H1975 | 0.63 | 0.683 | 0.738 | 0.744 | 0.687 | 1 | 1.11 | 0.899 | 1.02 | 0.652 | 0.387 | 0.374 | 0.357 | 0.363 | 0.227 | 0.884 | 0.531 | 0.856 | 0.948 | 0.669
NCI-H1993 | 0.854 | 0.69 | 0.728 | 0.779 | 0.794 | 0.787 | 0.747 | 0.772 | 0.797 | 0.694 | 0.532 | 0.523 | 0.579 | 0.488 | 0.583 | 0.947 | 0.837 | 0.75 | 0.784 | 0.826
NCI-H2009 | 0.724 | 0.921 | 0.723 | 0.708 | 0.722 | 1.16 | 1.13 | 1.13 | 1.26 | 1.16 | 0.354 | 0.263 | 0.273 | 0.129 | 0.176 | 0.89 | 0.959 | 0.893 | 0.997 | 0.977
NCI-H2023 | 0.625 | 0.53 | 0.711 | 0.654 | 0.612 | 1.01 | 1.02 | 0.808 | 0.686 | 0.296 | 0.616 | 0.336 | 0.575 | 0.332 | 0.354 | 0.918 | 0.878 | 0.713 | 0.477 | 0.202
NCI-H2085 | 0.743 | 0.835 | 0.821 | 0.852 | 0.727 | 1.12 | 1.12 | 1.24 | 1.24 | 1.03 | 0.278 | 0.268 | 0.282 | 0.293 | 0.299 | 0.8 | 0.758 | 0.507 | 0.815 | 0.563
NCI-H2087 | 0.762 | 0.598 | 0.402 | 0.56 | 0.302 | 1.04 | 1.04 | 1.06 | 1.17 | 0.892 | 0.836 | 0.661 | 0.675 | 0.431 | 0.52 | 0.987 | 1.12 | 1.13 | 1.26 | 1.02

Reference: the supplement of paper PMC10307832
